From patent US20140256644A1, “Treatment of Muscular Conditions and Muscular Dystrophies” (priority 2011, published 2014)
“Also recorded” adds a separate entry of the source. Where no end group is shown, it is not given here.

Key:
adult mdx FDB myofibers [1] = test: Stretch-induced ROS production (X-ROS), DCF fluorescence, 10% axial stretch (MuST); type: cell-based, mouse; conditions: adult mdx FDB fibers, 10% stretch, gp91dsTAT 2 μM, fulvene-5 5 μM, L-NAME 1 mM, colchicine, nocodozole, latrunculin A 10 μM
Method: (§1) After euthanasia by CO2 inhalation, flexor digitorum brevis (FDB) muscle was harvested bilaterally and incubated in DMEM with 1 μl/ml gentamicin, and 0.4% collagenase A (Roche Applied Science, Indianapolis, Ind., USA) as described. Single intact myofibers were isolated by gentle trituration. The fibers were imaged and/or fixed for immunolabeling within an 8-h period (unless indicated), thus avoiding morphological changes that can occur in FDB fibers that are cultured for a prolonged period.
All experiments were performed in custom rotating glass-bottom chamber (Four-hour Day Foundation, Towson, Md.) equipped with bath perfusion and mounted on BioRad Radiance fluorescent laser scanning confocal attached to an Olympus IX-70 inverted microscope (Olympus Corp., Centre Valley, Pa.). Cells were attached using micro-tweezers coated with the biological adhesive, MyoTak (Ionoptix, Milton, Mass.) and connected to a high-sensitivity force transducer (KG7) equipped with an anti-oscillation filter and a piezo-electric length controller (World Precision Instruments, Sarasota, Fla.). The force transducer and length controller were mounted on folded motorized micromanipulators (Siskiyou, Grants Pass, Oreg.) allowing to place the tweezers above the cell of interest. The rotating chamber, the tweezer-equipped force transducer and length controller and the micromanipulators formed the Muscle Stretch Tool (MUST).
(§2) Myofibers were attached at both ends by gently closing the MyoTak-coated tweezers without compressing the cell membrane and then lifting the cell from the bottom of the chamber. Cell sarcomere length was monitored using a High-speed Video Sarcomere Length camera (Aurora Scientific, Aurora, ON, CAN) and the voltage into the length controller was adjusted to produce a stretch equal to 10% of resting sarcomere length. The tension signal from the force transducer and positional output from the length controller were recorded at 1 kHz using a 600A data acquisition system from Aurora.
ROS was measured using 6-carboxy-2″,7″-dichlorodihydrofluorescein diacetate (DCFH-DA) (Invitrogen, Carlsbad, Calif.) in dimethyl sulfoxide (DMSO). FDB fibers were suspended in HEPES-buffered Ringer's solution containing (in mM): 140 NaCl, 4.0 KCl, 1.0 MgSO4, 5.0 NaHCO3, 10.0 glucose, 10.0 HEPES at pH 7.3 and incubated with Ringer's solution containing DCFH-DA (10 μM) for 30 minutes at room temperature. DCF-loaded cells were mounted on MUST and imaged using confocal line-scanning microscopy at 2 ms/line with very low laser intensity to prevent artifactual amplification of the signal due to light oxidation. DCF fluorescence signals were processed as described (16). The NOX2 specific inhibitor gp91dsTAT (2 μM), NOX inhibitor fulvene-5 (5 μM) and nitric oxide synthase inhibitor L-NAME (1 mM) was used to verify the source of ROS. Interrogation of cytoskeletal involvement in stretch dependent ROS or Ca^2+ influx was done with pharmacological methods.

NOX = target: T1, NOX (Homo sapiens, UniProt P04839); conditions: in muscle; apocynin or its oxidation products; cited from earlier work
T1 construct: host or cells: muscle
T1 sequence (P04839 1-570): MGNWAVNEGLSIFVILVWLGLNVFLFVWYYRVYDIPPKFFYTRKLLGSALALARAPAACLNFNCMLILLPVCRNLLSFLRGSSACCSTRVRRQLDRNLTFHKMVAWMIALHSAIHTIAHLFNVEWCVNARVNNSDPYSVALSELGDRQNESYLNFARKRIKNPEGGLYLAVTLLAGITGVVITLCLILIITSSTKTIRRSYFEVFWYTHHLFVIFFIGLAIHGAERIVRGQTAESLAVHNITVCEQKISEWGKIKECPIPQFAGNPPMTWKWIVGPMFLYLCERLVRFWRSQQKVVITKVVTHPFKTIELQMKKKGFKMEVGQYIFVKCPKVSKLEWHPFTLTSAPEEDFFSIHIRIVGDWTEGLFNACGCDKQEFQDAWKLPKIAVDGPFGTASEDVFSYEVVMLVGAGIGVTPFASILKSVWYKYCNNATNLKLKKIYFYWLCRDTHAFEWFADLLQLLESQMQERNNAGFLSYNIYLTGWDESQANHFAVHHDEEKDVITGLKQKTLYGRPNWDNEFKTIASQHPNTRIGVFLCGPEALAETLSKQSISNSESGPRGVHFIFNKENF

adult mdx mice [2] = test: In vitro isometric contraction-induced injury of EDL muscle after in vivo treatment; set-up: species or system mouse; conditions: mdx mice treated in vivo (colchicine 1 mg/kg IP 4 hours; apocynin 3 mg/kg IP 3 days), 20 isometric contractions
Method: Following CO2 asphyxiation and cervical dislocation, single EDL muscles were surgically excised with ligatures at each tendon (5-0 silk suture) and mounted in an in vitro bath between a fixed post and force transducer (Aurora 300B-LR) operated in isometric mode. The muscle was maintained in physiological saline solution and maintained at 30° C. under aeration with 95 O2/5 CO2 (%) throughout the experiment. Resting tension, muscle length and stimulation current were iteratively adjusted for each muscle to obtain optimal twitch force. During a 5 minute equilibration, single twitches were elicited at every 30 seconds with electrical pulses (0.5 msec) through platinum electrodes running parallel to the muscle. The injury protocol used to induce a force deficit (39) consisted of 20 maximum isometric contractions (1 sec at 100 Hz) separated by 1 minute. The absolute isometric force of each muscle during the contraction protocol was normalized to the maximum isometric force (Po) produced by the muscle during the 20-contraction protocol.

wild-type (WT) mice = test: In vivo eccentric contraction-induced injury in wild-type mice (gastrocnemius); set-up: species or system mouse
Method: WT mice were treated in vivo with either vehicle, or a combination of colchicine and apocynin. Following treatment, the gastrocnemius muscle was assayed for susceptibility to in vivo eccentric contraction injury.
(§3) Anaesthetized mice (isoflurane) were placed on a thermostatically controlled table, the knee was fixed with a pin and the foot was firmly fixed to a footplate on the motor shaft. Contraction was elicited by percutaneous electrical stimulation of the sciatic nerve. Optimal isometric tetanic torque was determined with increasing current with a minimum of 30 s between each contraction to avoid fatigue. Eccentric contractions at maximal isometric torque (0.2 ms pulse train at 100 Hz) were assayed for the resistance to muscle damage.
Eccentric contractions were achieved by lengthening the muscle during maximal contraction. This was achieved by translating the footplate 30° at a velocity of 40 mm/s following the first 200 msec of the isometric contraction. This protocol consisted of 20 eccentric contractions with 1 minute pauses in between. The decrease in the peak isometric force prior to the eccentric phase was taken as an indication for muscle damage.

adult mdx mice [3] = test: In vivo eccentric contraction-induced injury in mdx; conditions: for eccentric contraction induced force loss: colchicine 1 mg/kg IP 4 hours or apocynin 3 mg/kg IP 3 days, 20 eccentric contractions; for eccentric contraction induced force drop (FIG. 13): dimethylaminoparthenolide 50 mg/kg via gavage per day/3 days, Gp91ds-TAT 5 ug/g body weight, 2 doses one day apart
Method: as §3
Eccentric contractions were achieved by lengthening the muscle during maximal contraction. This was achieved by translating the footplate 30° at a velocity of 40 mm/s following the first 200 msec of the isometric contraction. This protocol consisted of 20 eccentric contractions with 1 minute pauses in between. The decrease in the peak isometric force prior to the eccentric phase was taken as an indication for muscle damage. To test the role of X-ROS in the functional status of mdx muscle, adult mdx mice were treated with either colchicine (1 mg/kg IP; 4 hours) or apocynin (3 mg/kg IP; 3 days) in vivo to reduce X-ROS signaling followed by a contraction protocol to produce mechanical stress.

wild-type FDB fibers [4] = test: Cytoskeletal stiffness by axial compression, atomic force microscopy; conditions: 10 μM, 2 hrs
[5] = tested on: microtubule network in isolated FDB myofibers; test: Fluorescence labeling and quantification of α-tubulin (microtubule network density); type: cell-based, mouse; conditions: for microtubule density (α-tubulin IHC): FDB fibers, colchicine 10 μM, taxol 10 μM; for microtubule density in isolated FDB myofibers: Angiotensin II treatment over 24 hrs
Method: Isolated intact FBDs were plated on ECM gel from Engelbreth-Holm-Swarm murine sarcoma coated imaging dishes (MatTek, Ashland, Mass.). Following treatment, plated myofibers were fixed with 2% paraformaldehyde, permeabilized with 0.1% Triton X-100 in phosphate buffered saline (PBS), blocked in 8% bovine serum albumin in PBS, and then labeled overnight with an antibody to α-tubulin conjugated to Alexa Fluor 488 (anti-mouse; Invitrogen, Carlsbad, Calif., USA). Digital images were obtained with a BioRad Radiance fluorescent laser scanning confocal attached to an Olympus IX-70 inverted microscope. Laser intensity was adjusted on a sample-to-sample basis to maximize amount of microtubules that are visualized. A 35-image Z-stack was taken at 0.5 μm interval and the most representative 9 frames were stacked together using ImageJ (NIH, USA) to form a composite image. Quantification was performed on the binary image representation of the 9-image stack. Background was subtracted uniformly and image was transformed into a binary using ImageJ unbiased binary function. A uniform region of interest was selected and mean intensity measured.

adult mdx FDB myofibers [6] = test: Stretch-dependent sarcolemmal Ca2+ influx, fluo-4 fluorescence rate; type: cell-based, mouse; conditions: adult mdx FDB fibers, acute stretch, GsMTx4 2.5 μM, colchicine 10 μM
Method: as §1, with “period. […]” for “period.”
as §2
Similar to DCF measurements, FDBs were suspended in Ringer's solution containing 5 μM fluo-4-AM (Invitrogen, Carlsbad, Ca) for 30 minutes at room temperature. […] Fluo-4 signal slopes before stretch and after were measured.

[7] = tested on: young wild-type and young mdx FDB muscle fibers; test: Stretch-induced X-ROS in young fibers after increasing microtubule density; type: cell-based, mouse; conditions: young wild-type or young mdx fibers, taxol 10 μM
Method: All experiments were performed in custom rotating glass-bottom chamber (Four-hour Day Foundation, Towson, Md.) equipped with bath perfusion and mounted on BioRad Radiance fluorescent laser scanning confocal attached to an Olympus IX-70 inverted microscope (Olympus Corp., Centre Valley, Pa.). Cells were attached using micro-tweezers coated with the biological adhesive, MyoTak (Ionoptix, Milton, Mass.) and connected to a high-sensitivity force transducer (KG7) equipped with an anti-oscillation filter and a piezo-electric length controller (World Precision Instruments, Sarasota, Fla.). […]
as §2
ROS was measured using 6-carboxy-2″,7″-dichlorodihydrofluorescein diacetate (DCFH-DA) (Invitrogen, Carlsbad, Calif.) in dimethyl sulfoxide (DMSO). […] DCF fluorescence signals were processed as described (16). […]

young WT muscle cells = test: Stretch Ca2+ entry in young fibers after increasing microtubule density; type: cell-based, mouse; conditions: young WT treated with taxol
Method: Similar to DCF measurements, FDBs were suspended in Ringer's solution containing 5 μM fluo-4-AM (Invitrogen, Carlsbad, Ca) for 30 minutes at room temperature. Fluo-4-loaded cells were mounted on MUST and imaged using confocal line-scanning microscopy at 2 ms/line. Fluo-4 signal slopes before stretch and after were measured.

C2C12 myotubes = test: Microtubule subunit content in myotubes; type: cell-based
Piezo2 = Piezo2 (Homo sapiens, UniProt Q9H5I5); conditions: cited from earlier work
Sequence of Piezo2 (Q9H5I5 whole entry, species assumed): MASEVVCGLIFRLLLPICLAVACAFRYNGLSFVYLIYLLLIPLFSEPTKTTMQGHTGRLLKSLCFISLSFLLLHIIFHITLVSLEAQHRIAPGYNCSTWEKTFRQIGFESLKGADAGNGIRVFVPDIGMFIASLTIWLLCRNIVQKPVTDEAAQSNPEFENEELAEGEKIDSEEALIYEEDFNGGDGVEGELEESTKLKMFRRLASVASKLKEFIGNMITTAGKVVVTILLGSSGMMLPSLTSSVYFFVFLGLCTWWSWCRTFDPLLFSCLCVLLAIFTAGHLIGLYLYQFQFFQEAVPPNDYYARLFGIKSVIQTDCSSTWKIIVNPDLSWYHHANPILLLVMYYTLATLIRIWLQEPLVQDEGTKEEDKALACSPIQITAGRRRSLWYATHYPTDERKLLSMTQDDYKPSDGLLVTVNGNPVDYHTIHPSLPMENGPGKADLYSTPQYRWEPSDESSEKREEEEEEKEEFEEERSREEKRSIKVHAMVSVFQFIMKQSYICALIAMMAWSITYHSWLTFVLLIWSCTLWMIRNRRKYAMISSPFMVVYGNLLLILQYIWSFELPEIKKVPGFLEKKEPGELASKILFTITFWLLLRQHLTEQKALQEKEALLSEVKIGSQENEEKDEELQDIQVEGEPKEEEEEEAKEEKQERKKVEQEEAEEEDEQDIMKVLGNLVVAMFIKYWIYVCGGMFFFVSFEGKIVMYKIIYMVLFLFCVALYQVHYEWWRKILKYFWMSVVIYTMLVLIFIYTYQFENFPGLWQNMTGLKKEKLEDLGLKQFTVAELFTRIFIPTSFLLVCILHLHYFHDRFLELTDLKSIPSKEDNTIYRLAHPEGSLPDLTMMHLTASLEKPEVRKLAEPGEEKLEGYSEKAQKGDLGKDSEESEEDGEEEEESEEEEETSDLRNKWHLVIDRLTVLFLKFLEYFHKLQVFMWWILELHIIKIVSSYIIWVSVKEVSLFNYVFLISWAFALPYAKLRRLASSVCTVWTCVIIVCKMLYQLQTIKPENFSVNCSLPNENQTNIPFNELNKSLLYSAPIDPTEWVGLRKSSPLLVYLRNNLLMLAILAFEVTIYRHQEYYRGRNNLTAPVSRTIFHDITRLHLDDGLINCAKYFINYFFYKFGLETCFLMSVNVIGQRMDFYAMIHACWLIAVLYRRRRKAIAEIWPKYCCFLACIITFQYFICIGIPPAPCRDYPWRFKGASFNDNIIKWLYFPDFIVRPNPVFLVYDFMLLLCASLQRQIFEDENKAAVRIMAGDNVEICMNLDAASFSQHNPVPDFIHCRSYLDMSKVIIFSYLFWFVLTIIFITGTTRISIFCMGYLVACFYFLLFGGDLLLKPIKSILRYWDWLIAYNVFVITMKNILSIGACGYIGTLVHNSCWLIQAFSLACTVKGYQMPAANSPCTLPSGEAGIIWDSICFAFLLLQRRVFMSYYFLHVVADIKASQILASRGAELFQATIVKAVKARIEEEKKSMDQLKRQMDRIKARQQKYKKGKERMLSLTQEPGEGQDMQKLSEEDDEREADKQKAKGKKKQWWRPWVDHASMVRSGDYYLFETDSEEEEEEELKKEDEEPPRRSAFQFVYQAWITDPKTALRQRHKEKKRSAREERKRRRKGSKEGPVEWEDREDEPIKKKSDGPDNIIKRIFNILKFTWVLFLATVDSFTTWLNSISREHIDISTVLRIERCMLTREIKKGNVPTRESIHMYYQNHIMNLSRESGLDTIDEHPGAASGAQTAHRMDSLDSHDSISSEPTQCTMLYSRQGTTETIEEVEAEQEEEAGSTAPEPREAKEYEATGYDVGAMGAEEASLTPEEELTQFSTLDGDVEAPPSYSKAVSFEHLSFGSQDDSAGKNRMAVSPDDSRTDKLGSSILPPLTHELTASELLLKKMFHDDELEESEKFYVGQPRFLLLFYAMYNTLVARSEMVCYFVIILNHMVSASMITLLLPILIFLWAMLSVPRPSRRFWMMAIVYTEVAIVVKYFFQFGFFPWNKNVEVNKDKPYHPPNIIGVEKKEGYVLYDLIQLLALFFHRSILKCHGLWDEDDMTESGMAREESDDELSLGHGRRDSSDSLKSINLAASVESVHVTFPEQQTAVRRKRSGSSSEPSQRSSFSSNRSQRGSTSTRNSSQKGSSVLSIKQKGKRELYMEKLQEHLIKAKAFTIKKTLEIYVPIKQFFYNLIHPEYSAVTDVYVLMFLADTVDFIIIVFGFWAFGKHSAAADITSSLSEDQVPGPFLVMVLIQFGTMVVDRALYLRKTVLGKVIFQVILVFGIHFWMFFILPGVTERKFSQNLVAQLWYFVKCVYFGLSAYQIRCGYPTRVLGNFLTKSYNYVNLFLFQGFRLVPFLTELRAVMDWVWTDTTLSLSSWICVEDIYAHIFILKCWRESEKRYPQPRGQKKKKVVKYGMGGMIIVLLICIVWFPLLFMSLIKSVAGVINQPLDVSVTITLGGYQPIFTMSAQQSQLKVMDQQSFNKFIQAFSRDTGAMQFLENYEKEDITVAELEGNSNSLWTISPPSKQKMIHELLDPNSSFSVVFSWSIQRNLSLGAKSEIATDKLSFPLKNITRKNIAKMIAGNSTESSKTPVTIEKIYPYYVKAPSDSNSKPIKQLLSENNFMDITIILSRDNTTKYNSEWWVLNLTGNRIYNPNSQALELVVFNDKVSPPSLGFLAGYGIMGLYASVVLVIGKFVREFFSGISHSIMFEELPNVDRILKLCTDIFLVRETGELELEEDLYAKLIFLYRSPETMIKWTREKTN

wild-type FDB fibers [8] = test: Stretch activated calcium influx, Mn quench assay; conditions: parthenolide 10 uM 2 hrs, Gp91ds-TAT 1 uM 30 minutes
Piezo1 = conditions: cited from earlier work

CCN(CC)CCCC(C)Nc1nc(C)cc(Nc2ccc3nc(C)cc(N)c3c2)n1 (racemic) [Rac1 inhibitor]
stretch-induced ROS production (X-ROS) (adult mdx FDB myofibers [1]): effective at abrogating X-ROS; also recorded: ameliorated the stretch-induced ROS production

COC(=O)[C@@H](N)CCCNC(=N)N[N+](=O)[O-] [L-NAME]
stretch-induced ROS production (X-ROS) (adult mdx FDB myofibers [1]): had no effect

COc1cc(C(C)=O)ccc1O [apocynin]
translocation of cytosolic p47phox and p67phox proteins / inactivation of NOX (NOX): inhibit translocation
isometric contraction induced force loss (adult mdx mice [2]): significant protection from force loss; also recorded: significantly decreased the isometric contraction induced force loss
eccentric contraction induced force drop in wild-type mice (wild-type (WT) mice; WT mice, gastrocnemius, 18 eccentric contractions): significantly decreased the eccentric contraction induced force loss
eccentric contraction induced force loss (adult mdx mice [3]): significantly ameliorated the contraction induced force drop; also recorded: significant protection from force loss; also recorded: significantly reduced contraction induced force loss

COc1cc2c(c(OC)c1OC)-c1ccc(OC)c(=O)cc1[C@@H](NC(C)=O)CC2 [colchicine]
cytoskeletal stiffness (wild-type FDB fibers [4]): equally effective at decreasing cytoskeletal stiffness
microtubule density (α-tubulin IHC) [5]: decreased; also recorded: ablated the majority of the cytoskeletal structure
stretch dependent sarcolemmal Ca2+ influx (adult mdx FDB myofibers [6]): inhibited; also recorded: prevented; also recorded: little X-ROS and Ca^2+ entry; also recorded: ablated
isometric contraction induced force loss (adult mdx mice [2]): significant protection from force loss; also recorded: significantly decreased the isometric contraction induced force loss
eccentric contraction induced force drop in wild-type mice (wild-type (WT) mice; mouse, in vivo): significantly decreased the eccentric contraction induced force loss
stretch-induced ROS production (X-ROS) (adult mdx FDB myofibers [1]): prevented the increase in X-ROS; also recorded: little X-ROS; also recorded: ameliorated the stretch-induced ROS production
eccentric contraction induced force loss (adult mdx mice [3]): significantly ameliorated the contraction induced force drop; also recorded: significant protection from force loss; also recorded: significantly reduced contraction induced force loss

C/C1=C\CC[C@@]2(C)O[C@@H]2[C@H]2OC(=O)[C@H](CN(C)C)[C@@H]2CC1 [dimethylaminoparthenolide]
isometric contraction induced force loss (adult mdx mice [2]): significantly decreased the isometric contraction induced force loss
eccentric contraction induced force drop (FIG. 13) (adult mdx mice [3]): ameliorated the force drop
eccentric contraction induced force drop (FIG. 13) (adult mdx mice [3]; listed as LC-1): reduced eccentric contraction induced force drop

C/C1=C/C(=O)O[C@@H]2C[C@@H](CC[C@H](C)/C=C\C=C\CC1)O[C@@](O)([C@@H]1CSC(=O)N1)C2 [latrunculin A]
stretch-induced ROS production (X-ROS) (adult mdx FDB myofibers [1]): had no effect
stretch-induced ROS production (X-ROS) (adult mdx FDB myofibers [1]; listed as latrunuculin A): no significant effect

CC(=O)O[C@H]1C(=O)[C@@]2(C)[C@H]([C@H](OC(=O)c3ccccc3)[C@]3(O)C[C@H](OC(=O)[C@H](O)[C@@H](NC(=O)c4ccccc4)c4ccccc4)C(C)=C1C3(C)C)[C@]1(OC(C)=O)CO[C@@H]1C[C@@H]2O [taxol]
microtubule density (α-tubulin IHC) [5]: increased
X-ROS in young fibers [7]: exuberant X-ROS; also recorded: made X-ROS competent
Ca2+ entry in young fibers (young WT muscle cells): exuberant X-ROS and Ca^2+ entry

Angiotensin II: angiotensin II, increases microtubule density
microtubule density in isolated FDB myofibers [5]: increases microtubule density
microtubule density in isolated FDB myofibers ([5]; listed as angiotensin II): densified the microtubule network
microtubule subunit content (C2C12 myotubes): increased microtubule subunit content

GsMTx4: mechano-sensitive (stretch activated) channel blocker (GCLEFWWKCNPNDDKCCRPKLKCSKLFKLCNFSF; ends and bridges not checked; cysteine pairing not given here; UniProt Q7YT39 47-80, looked up)
stretch dependent sarcolemmal Ca2+ influx (adult mdx FDB myofibers [6]): inhibited; also recorded: prevented; also recorded: ablated
inhibition of Piezo2 channel (Piezo2): inhibited
stretch activated calcium influx (wild-type FDB fibers [8]): significantly reduced stretch activated Ca^2+ influx
inhibition of Piezo1 channel (Piezo1): inhibited

fulvene-5
stretch-induced ROS production (X-ROS) (adult mdx FDB myofibers [1]): verified NOX2 as the source of the stretch dependent ROS
stretch-induced ROS production (X-ROS) (adult mdx FDB myofibers [1]; listed as Fulvene 5): effective at abrogating X-ROS
